Assay results reported in patent US20250152527A1 (priority 2023, published 2025).

Tests used:
[1] = test system: patients with clinically stable coronary disease; assay: LoDoCo Trial: colchicine 0.5 mg/day added to standard secondary prevention therapies; type: in vivo, human
Method: This study is described in PCT/AU2013/001261 and is hereby incorporated in its entirety by reference.
All outcomes were evaluated by an experienced adjudicator blinded to the treatment allocation.
Patients with a history of bypass surgery were only eligible if they had undergone bypass surgery more than 10 years before, or had angiographic evidence of graft failure or had undergone stenting since their bypass surgery. All patients signed informed consent before randomization.
Patients who were intolerant to therapy remained in the study, and were followed in the usual manner and included in the primary intention to treat analysis.
The drug was dispensed by their usual chemist, and if requested, patients were reimbursed for the cost of these scripts. All other treatments were continued as usual.
An acute coronary syndrome (ACS) was defined as either (a) Acute Myocardial Infarction (AMI), as evidenced by acute ischemic chest pain associated with a rise in serum troponin above the upper limit of normal or (b) Unstable Angina (UA), as evidenced by a recent acceleration of the patient's angina unassociated with a rise in serum troponin but associated with angiographic evidence of a change in the patient's coronary anatomy. (Unstable Angina Braunwald classification types IB and IIB). The ACS was characterized as being stent-related if there was evidence of significant in-stent stenosis or acute stent thrombosis. Out of Hospital Cardiac Arrest was defined as either a sudden death as evidenced on the patient's death certificate, or a non-fatal out of hospital cardiac arrest, defined as a recovery from sudden collapse associated with documented asystole, ventricular tachycardia or ventricular fibrillation.
The primary efficacy outcome was the composite, ACS, fatal or non-fatal out of hospital cardiac arrest or non-cardio-embolic ischemic stroke. […]
All time to event outcomes were calculated in days by subtracting the date of randomization from either: (1) the date of event or death; or (2) the trial termination date for those patients not experiencing the defined event. […]

[2] = test system: patients with clinically stable coronary disease; details: Nidorf et al., JACC 2013; 0.5 mg/day in addition to statins and other standard therapies; cited from earlier work

SMILES: COc1cc2c(c(OC)c1OC)-c1ccc(OC)c(=O)cc1[C@@H](NC(C)=O)CC2 [colchicine, (−)-N-[(7S, 12aS)-1,2,3,10-tetramethoxy-9-oxo-5,6,7,9-tetrahydrobenzo[a]heptalen-7-yl]-acetamide]
- patients with ACS unrelated to stent disease associated with an AMI ([1]; 4/282 patients): 1.4%
- patients with ACS unrelated to stent disease associated with UA ([1]; 5/282 patients): 1.8%
- patients with a primary outcome (ACS, out of hospital cardiac arrest or non-cardio-embolic ischemic stroke) ([1]; intention to treat, 15/282 patients, colchicine 0.5 mg/day, median follow up 36 months): 5.3%
- prevention of cardiovascular events [2]: appeared effective for the prevention of cardiovascular events
